Source: US7723329B2, “Substituted-3-sulfonylindazole derivatives as 5-hydroxytryptamine-6 ligands” (Wyeth LLC, priority 2005, dated 2010)
Structures can show the parent of a compound that is named as a salt.

How the values were obtained:
[1] = biological target: T1, human cloned 5-HT6 receptors (Homo sapiens, UniProt P50406); assay: 5-HT6 binding affinity, [3H]-LSD displacement; conditions: membranes of Hela cells expressing human cloned 5-HT6 receptors; [3H]-LSD 3.0 nM; 120 minutes at room temperature
T1 construct: expressed in transfected cells; host or cells: HeLa cells
T1 sequence (P50406 whole entry): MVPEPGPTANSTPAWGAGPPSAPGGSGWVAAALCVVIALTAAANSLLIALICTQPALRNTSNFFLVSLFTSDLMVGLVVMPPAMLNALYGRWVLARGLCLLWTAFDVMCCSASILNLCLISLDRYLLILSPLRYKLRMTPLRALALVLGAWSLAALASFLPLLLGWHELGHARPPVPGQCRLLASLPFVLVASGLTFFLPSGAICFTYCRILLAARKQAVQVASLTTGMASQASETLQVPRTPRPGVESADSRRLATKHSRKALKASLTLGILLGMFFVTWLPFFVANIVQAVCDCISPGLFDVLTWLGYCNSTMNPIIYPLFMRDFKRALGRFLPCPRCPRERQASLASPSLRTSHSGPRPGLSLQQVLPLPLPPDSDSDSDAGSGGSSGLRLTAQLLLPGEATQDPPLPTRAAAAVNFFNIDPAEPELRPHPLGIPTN

| SMILES | melting point | Ki [1] [nM] |
| --- | --- | --- |
| C[C@H]1CN(Cc2ccc3[nH]nc(S(=O)(=O)c4cccc5ccccc45)c3c2)CCN1 (as salt: HCl) [Example 199] | 178 to 181 °C |  |
| C[C@@H]1CN(Cc2ccc3[nH]nc(S(=O)(=O)c4cccc5ccccc45)c3c2)CCN1 (as salt: HCl) [Example 200] | 179 to 181 °C |  |
| N[C@@H]1CCN(Cc2ccc3[nH]nc(S(=O)(=O)c4cccc5ccccc45)c3c2)C1 (as salt: HCl) [Example 201] | > 200 °C |  |
| O=S(=O)(c1ccccc1)c1n[nH]c2ccc(OCCN3CCCCC3)cc12 (as salt: hydrochloride) [Example 3, 3-Benzenesulfonyl-5-(2-piperidin-1-yl-ethoxy)-1H-indazole] | 249 to 250 °C |  |
| CCNCCOc1ccc2[nH]nc(S(=O)(=O)c3ccccc3)c2c1 (as salt: hydrochloride) [Example 4, [2-(3-Benzenesulfonyl-1H-indazol-5-yloxy)-ethyl]-ethyl-amine] | 248 to 250 °C (dec.) |  |
| CC(C)NCCOc1ccc2[nH]nc(S(=O)(=O)c3ccccc3)c2c1 (as salt: hydrochloride) [Example 6, [2-(3-Benzenesulfonyl-1H-indazol-5-yloxy)-ethyl]-isopropyl-amine] | 275 to 277 °C (dec.) |  |
| CCCCNCCOc1ccc2[nH]nc(S(=O)(=O)c3ccccc3)c2c1 (as salt: hydrochloride) [Example 7, [2-(3-Benzenesulfonyl-1H-indazol-5-yloxy)-ethyl]-butyl-amine] | 271 to 273 °C (dec.) |  |
| O=S(=O)(c1ccccc1)c1n[nH]c2ccc(OCCNC3CC3)cc12 (as salt: hydrochloride) [Example 8, [2-(3-Benzenesulfonyl-1H-indazol-5-yloxy)-ethyl]-cyclopropyl-amine] | 184 to 185 °C (dec.) |  |
| O=S(=O)(c1ccccc1)c1n[nH]c2ccc(OCCNC3CCCC3)cc12 (as salt: hydrochloride) [Example 9, 3-Benzenesulfonyl-5-(2-cyclopentyl-1-yl-ethoxy)-1H-indazole] | 255 to 258 °C (dec.) |  |
| NCCOc1ccc2[nH]nc(S(=O)(=O)c3ccccc3)c2c1 (as salt: hydrochloride) [Example 13, 2-(3-Benzenesulfonyl-1H-indazol-5-yloxy)-ethylamine] | > 300 °C |  |
| CNCCOc1ccc2c(c1)c(S(=O)(=O)c1cccc3ccccc13)nn2C (as salt: hydrochloride) [Example 40, Methyl-{2-[1-methyl-3-(naphthalene-1-sulfonyl)-1H-indazol-5-yloxy]-ethyl}-amine] | 272 to 274 °C (dec.) |  |
| CCNCCOc1ccc2c(c1)c(S(=O)(=O)c1cccc3ccccc13)nn2C (as salt: hydrochloride) [Example 44, Ethyl-{2-[1-methyl-3-(naphthalene-1-sulfonyl)-1H-indazol-5-yloxy]-ethyl}-amine] | 276 to 277 °C (dec.) |  |
| CC(C)NCCOc1ccc2c(c1)c(S(=O)(=O)c1cccc3ccccc13)nn2C (as salt: hydrochloride) [Example 45, Isopropyl-{2-[1-methyl-3-(naphthalene-1-sulfonyl)-1H-indazol-5-yloxy]-ethyl}-amine] | 274 to 276 °C (dec.) |  |
| CC(C)NCCOc1ccc2c(c1)c(S(=O)(=O)c1cccc3ccccc13)nn2Cc1cccc(Cl)c1 (as salt: hydrochloride) [Example 57, {2-[1-(3-Chloro-benzyl)-3-(naphthalene-1-sulfonyl)-1H-indazol-5-yloxy]-ethyl}-isopropyl-amine] | 206 to 208 °C |  |
| CN(C)CCN(C)Cc1ccc2[nH]nc(S(=O)(=O)c3cccc4ccccc34)c2c1 (as salt: hydrochloride) [Example 153, N,N, N′-Trimethyl-N′-{[3-(1-naphthylsulfonyl)-1H-indazol-5-yl]methyl}ethane-1,2-diamine] | > 200 °C |  |
| O=S(=O)(c1cccc2ccccc12)c1n[nH]c2ccc(CN[C@H]3CCNC3)cc12 (as salt: hydrochloride) [Example 154, (3S)—N-{([3-(1-Naphthylsulfonyl)-1H-indazol-5-yl]methyl}pyrrolidin-3-amine Hydrochloride] | > 200 °C |  |
| NCCNCc1ccc2[nH]nc(S(=O)(=O)c3cccc4ccccc34)c2c1 (as salt: hydrochloride) [Example 155, N{[3-(1-Naphthylsulfonyl)-1H-indazol-5yl]methyl}ethane-1.2-diamine] | > 200 °C |  |
| CN(C)CCc1cccc2c(S(=O)(=O)c3ccccc3)n[nH]c12 (as salt: hydrochloride) [Example 171, N,N-Dimethyl-N-{2-[3-(phenylsulfonyl)-1H-indazol-7-yl]ethyl}amine hydrochloride] | 76 to 80 °C |  |
| O=S(=O)(c1ccccc1)c1n[nH]c2c(CCNC3CC3)cccc12 (as salt: hydrochloride) [Example 172, N-{2-[3-(phenylsulfonyl)-1H-indazol-7-yl]ethyl}cyclopropanamine hydrochloride] | 115 to 117 °C |  |
| CN(C)CCc1ccc2[nH]nc(S(=O)(=O)c3ccccc3)c2c1 (as salt: hydrochloride) [Example 176, N,N-Dimethyl-N-{2-[3-(phenylsulfonyl)-1H-indazol-5-yl]ethyl}amine hydrochloride] | 108 to 110 °C |  |

| SMILES | melting point | Ki [1] [nM] |
| --- | --- | --- |
| NCCCCc1ccc2[nH]nc(S(=O)(=O)c3ccccc3)c2c1 (as salt: hydrochloride) [Example 181, {4-[3-(Phenylsulfonyl)-1H-indazol-5-yl]butyl}amine hydrochloride] | 120 to 125 °C |  |
| CN(C)CCCc1ccc2[nH]nc(S(=O)(=O)c3cccc4ccccc34)c2c1 (as salt: hydrochloride) [Example 182, N,N-Dimethyl-N-{3-[3-(naphthylsulfonyl)-1H-indazol-5-yl]propyl}amine hydrochloride] | 247 to 248 °C |  |
| O=S(=O)(c1cccc2ccccc12)c1n[nH]c2ccc(CN3CCNCC3)cc12 (as salt: hydrochloride) [Example 195, 3-(1-Naphthylsulfonyl)-5-(piperazin-1-ylmethyl)-1H-indazole] | > 200 °C |  |
| O=C(c1ccc2[nH]nc(S(=O)(=O)c3cccc4ccccc34)c2c1)N1CCNCC1 (as salt: hydrochloride) [Example 202, 3-(1-Naphthylsulfonyl)-5-(piperazin-1 ylcarbonyl)-1H-indazole] | > 200 °C |  |
| CN(C)CCCc1ccc2[nH]nc(S(=O)(=O)c3ccccc3)c2c1 (as salt: trifluoroacetate) [Example 177, N,N-Dimethyl-N-{3-[3-(phenylsulfonyl)-1H-indazol-5-yl]propyl}amine trifluoroacetate] | 75 to 80 °C |  |
| CC(C)NCCCc1ccc2[nH]nc(S(=O)(=O)c3ccccc3)c2c1 (as salt: trifluoroacetate) [Example 179, N-Isopropyl-N-{3-[3-(phenylsulfonyl)-1H-indazol-5-yl]propyl}amine trifluoroacetate] | 169 to 171 °C |  |
| NCCCc1ccc2[nH]nc(S(=O)(=O)c3ccccc3)c2c1 (as salt: trifluoroacetate) [Example 180, {3-[3-(Phenylsulfonyl)-1H-indazol-5-yl]propyl}amine trifluoroacetate] | 92 to 94 °C |  |
| Cl.NCCc1cccc2c(S(=O)(=O)c3ccccc3)n[nH]c12 [Example 174, {2-[3-(Phenylsulfonyl)-1H-indazol-7-yl]ethyl}amine Hydrochloride] | 157 to 160 °C | 0.01 to 10 |
| CNCCc1ccc2[nH]nc(S(=O)(=O)c3ccccc3)c2c1 [Example 175, N-Methyl-N-{2-[3-(phenylsulfonyl)-1H-indazol-5-yl]ethyl}amine] | 186 to 188 °C | 0.01 to 10 |
| CNCCCc1ccc2[nH]nc(S(=O)(=O)c3cccc4ccccc34)c2c1 [Example 183] | 155 to 160 °C | 0.01 to 10 |
| CC(C)NCCCc1ccc2[nH]nc(S(=O)(=O)c3cccc4ccccc34)c2c1 [Example 185] | 160 to 163 °C | 0.01 to 10 |
| CCN(C)CCCc1ccc2[nH]nc(S(=O)(=O)c3cccc4ccccc34)c2c1 [Example 186] | 205 to 207 °C | 0.01 to 10 |
| O=S(=O)(c1cccc2ccccc12)c1n[nH]c2ccc(CCCN3CCCC3)cc12 [Example 187] | 135 to 138 °C | 0.01 to 10 |
| NCCCc1ccc2[nH]nc(S(=O)(=O)c3cccc4ccccc34)c2c1 [Example 188, {3-[3-(Naphthylylsulfonyl)-1H-indazol-5-yl]propyl}amine] | 92 to 94 °C | 0.01 to 10 |
| CN(C)CCCCc1ccc2[nH]nc(S(=O)(=O)c3cccc4ccccc34)c2c1 [Example 190] | 232 to 233 °C | 0.01 to 10 |
| CCNCCCCc1ccc2[nH]nc(S(=O)(=O)c3cccc4ccccc34)c2c1 [Example 191] | 140 to 145 °C | 0.01 to 10 |
| CC(C)NCCCCc1ccc2[nH]nc(S(=O)(=O)c3cccc4ccccc34)c2c1 [Example 192] | 145 to 150 °C | 0.01 to 10 |
| CCN(C)CCCCc1ccc2[nH]nc(S(=O)(=O)c3cccc4ccccc34)c2c1 [Example 193] | 195 to 198 °C | 0.01 to 10 |
| O=S(=O)(c1cccc2ccccc12)c1n[nH]c2ccc(CCCCN3CCCC3)cc12 [Example 194] | 238 to 240 °C | 11 to 25 |
| CC(c1ccc2[nH]nc(S(=O)(=O)c3cccc4ccccc34)c2c1)N1CCN(C)CC1 (centres unmarked) [Example 203, 5-[1-(4-Methylpiperazin-1-yl)ethyl]-3-(1-naphthylsulfonyl)-1H-indazole] | 183 to 185 °C | 0.01 to 10 |
